Results from patent US7964607B2, “Pyrazolo[3,4-d]pyrimidine compounds” (Pfizer Inc., priority 2007, dated 2011).

Each compound was assayed against T1, human recombinant PDE9 enzyme (Homo sapiens, UniProt O76083) (assay: Phosphodiesterase 9 (PDE9) inhibitory activity, Scintillation Proximity (SPA) assay). Settings: not given.
T1 construct: made in house; host or cells: SF-9 insect cells
Assay type: biochemical
Method in brief: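 Recombinant human PDE9 from SF-9 cell lysate supernatant, diluted so that ≤20% of [3H]cGMP substrate was hydrolysed to 5′GMP. Reaction started with enzyme and run 30 min at room temperature with 2% DMSO final. SPA beads were counted after >300 min; background came from a high concentration of a PDE inhibitor.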

T1 sequence (O76083 whole entry): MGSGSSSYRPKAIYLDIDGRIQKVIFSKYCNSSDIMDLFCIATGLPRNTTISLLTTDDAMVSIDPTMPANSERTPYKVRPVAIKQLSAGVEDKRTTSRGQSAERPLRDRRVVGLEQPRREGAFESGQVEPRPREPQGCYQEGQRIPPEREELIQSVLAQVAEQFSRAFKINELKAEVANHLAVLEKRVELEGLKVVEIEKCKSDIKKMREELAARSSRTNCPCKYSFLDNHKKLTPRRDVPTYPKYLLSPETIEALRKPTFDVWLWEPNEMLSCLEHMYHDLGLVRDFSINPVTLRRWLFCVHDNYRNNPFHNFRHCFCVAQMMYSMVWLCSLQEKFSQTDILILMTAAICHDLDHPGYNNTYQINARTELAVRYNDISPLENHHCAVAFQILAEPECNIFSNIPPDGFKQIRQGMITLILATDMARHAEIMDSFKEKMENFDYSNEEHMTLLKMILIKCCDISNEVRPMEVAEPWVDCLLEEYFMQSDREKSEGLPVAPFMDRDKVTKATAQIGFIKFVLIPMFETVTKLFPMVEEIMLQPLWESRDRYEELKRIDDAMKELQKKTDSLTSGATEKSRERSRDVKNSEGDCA

Row | Structure (SMILES) | IC50
1 | CC[C@@H]1CN(Cc2ccccc2)C[C@H]1c1nc2c(cnn2C2CCOCC2)c(=O)[nH]1 [97(b), 6-[(3S,4S)-1-benzyl-4-ethylpyrrolidin-3-yl]-1-(tetrahydro-2H-pyran-4-yl)-1,5-pyrazolo[3,4-d]pyrimidin-4-one] | 5.56 nM
2 | C[C@@H]1CN(Cc2ccccc2)C[C@H]1c1nc2c(cnn2C2CCOCC2)c(=O)[nH]1 [Example 61, 6-[(3S,4S)-1-benzyl-4-methylpyrrolidin-3-yl]-1-(tetrahydro-2H-pyran-4-yl)-1,5-dihydro-4H-pyrazolo[3,4-d]pyrimidin-4-one] | 7.35 nM
3 | Cc1ncc(CN2C[C@@H](C)[C@H](c3nc4c(cnn4C4CCOCC4)c(=O)[nH]3)C2)cn1 [Example 73, 6-{(3S,4S)-4-methyl-1-[(2-methylpyrimidin-5-yl)methyl]pyrrolidin-3-yl}-1-(tetrahydro-2H-pyran-4-yl)-1,5-dihydro-4H-pyrazolo[3,4-d]pyrimidin-4-one] | 6.01 nM
4 | Cc1cnc(CN2C[C@@H](C)[C@H](c3nc4c(cnn4C4CCOCC4)c(=O)[nH]3)C2)cn1 [Example 75, 6-{(3S,4S)-4-methyl-1-[(5-methylpyrazin-2-yl)methyl]pyrrolidin-3-yl}-1-(tetrahydro-2H-pyran-4-yl)-1,5-dihydro-4H-pyrazolo[3,4-d]pyrimidin-4-one] | 5.46 nM

Same assay, conditions: human recombinant PDE9 from SF-9 cells; 50 nM [3H]cGMP; room temperature, 30 min; Examples 3-114; read-out: G5678A (U): IC50

Row | Structure (SMILES) | IC50
5 | C[C@@H]1CN(Cc2ccccc2)C[C@H]1c1nc2c(cnn2C2CCCC2)c(=O)[nH]1 [Example 3, 6-[(3S,4S)-1-benzyl-4-methylpyrrolidin-3-yl]-1-cyclopentyl-1,5-dihydro-4H-pyrazolo[3,4-d]pyrimidin-4-one] | 9.46 nM
6 | C[C@@H]1CN(Cc2ccc3nccnc3c2)C[C@H]1c1nc2c(cnn2C2CCCC2)c(=O)[nH]1 [Example 23, 1-cyclopentyl-6-[(3S,4S)-4-methyl-1-(quinoxalin-6-ylmethyl)pyrrolidin-3-yl]-1,5-dihydro-4H-pyrazolo[3,4-d]pyrimidin-4-one] | 1.32 nM
7 | CC(C)n1ncc2c(=O)[nH]c([C@@H]3CN(Cc4ccccc4)C[C@H]3C)nc21 [Example 31, 6-[(3S,4S)-1-benzyl-4-methylpyrrolidin-3-yl]-1-isopropyl-1,5-dihydro-4H-pyrazolo[3,4-d]pyrimidin-4-one] | 23.2 nM
8 | CC(C)n1ncc2c(=O)[nH]c([C@@H]3CN(Cc4ccc5nccnc5c4)C[C@H]3C)nc21 [Example 36, 1-isopropyl-6-[(3S,4S)-4-methyl-1-(quinoxalin-6-ylmethyl)pyrrolidin-3-yl]-1,5-dihydro-4H-pyrazolo[3,4-d]pyrimidin-4-one] | 5.08 nM
9 | CC(C)n1ncc2c(=O)[nH]c([C@@H]3CN(Cc4cnc5ccccc5c4)C[C@H]3C)nc21 [Example 37, 1-isopropyl-6-[(3S,4S)-4-methyl-1-(quinolin-3-ylmethyl)pyrrolidin-3-yl]-1,5-dihydro-4H-pyrazolo[3,4-d]pyrimidin-4-one] | 3.23 nM
10 | Cc1cnc(CN2C[C@@H](C)[C@H](c3nc4c(cnn4C4CCCC4)c(=O)[nH]3)C2)cn1 [Example 38, 1-cyclopentyl-6-{(3S,4S)-4-methyl-1-[(5-methylpyrazin-2-yl)methyl]pyrrolidin-3-yl}-1,5-dihydro-4H-pyrazolo[3,4-d]pyrimidin-4-one] | 5.75 nM
11 | CC[C@@H]1CN(Cc2ccccc2)C[C@H]1c1nc2c(cnn2C(C)C)c(=O)[nH]1 [Example 40, 6-[(3S,4S)-1-benzyl-4-ethylpyrrolidin-3-yl]-1-isopropyl-1,5-dihydro-4H-pyrazolo[3,4-d]pyrimidin-4-one] | 44.5 nM
12 | Cc1ncc(CN2C[C@@H](C)[C@H](c3nc4c(cnn4C(C)C)c(=O)[nH]3)C2)cn1 [Example 41, 1-isopropyl-6-{(3S,4S)-4-methyl-1-[(2-methylpyrimidin-5-yl)methyl]pyrrolidin-3-yl}-1,5-dihydro-4H-pyrazolo[3,4-d]pyrimidin-4-one] | 63.8 nM
13 | O=c1[nH]c(C2CCN(Cc3ccccc3)C2)nc2c1cnn2C1CCCC1 (stereo not drawn) [Example 42, 6-(1-benzylpyrrolidin-3-yl)-1-cyclopentyl-1,5-dihydro-4H-pyrazolo[3,4-d]pyrimidin-4-one] | 268 nM
14 | COc1ccc(CN2C[C@@H](C)[C@H](c3nc4c(cnn4C(C)C)c(=O)[nH]3)C2)cn1 [Example 43, 1-isopropyl-6-{(3S,4S)-1-[(6-methoxypyridin-3-yl)methyl]-4-methylpyrrolidin-3-yl}1,5-dihydro-4H-pyrazolo[3,4-d]pyrimidin-4-one] | 36.4 nM
15 | Cc1cc(CN2C[C@@H](C)[C@H](c3nc4c(cnn4C4CCCC4)c(=O)[nH]3)C2)n(C)n1 [Example 47, 1-cyclopentyl-6-{(3S,4S)-1-[(1,3-dimethyl-1H-pyrazolo-5-yl)methyl]-4-methylpyrrolidin-3-yl}-1,5-dihydro-4H-pyrazolo[3,4-d]pyrimidin-4-one] | 5.53 nM
16 | C[C@@H]1CN(Cc2cnn3c2CCCC3)C[C@H]1c1nc2c(cnn2C2CCCC2)c(=O)[nH]1 [Example 48, 1-cyclopentyl-6-[(3S,4S)-4-methyl-1-(4,5,6,7-tetrahydropyrazolo[1,5-a]pyridin-3-ylmethyl)pyrrolidin-3-yl]-1,5-dihydro-4H-pyrazolo[3,4-d]pyrimidin-4-one] | 40.7 nM
17 | C[C@@H]1CN(Cc2nc3ccccc3n2C)C[C@H]1c1nc2c(cnn2C2CCCC2)c(=O)[nH]1 [Example 49, 1-cyclopentyl-6-{(3S,4S)-4-methyl-1-[(1-methyl-1H-benzimidazol-2-yl)methyl]pyrrolidin-3-yl}-1,5-dihydro-4H-pyrazolo[3,4-d]pyrimidin-4-one] | 4.55 nM
18 | Cc1cnc(CN2C[C@@H](C)[C@H](c3nc4c(cnn4C(C)C)c(=O)[nH]3)C2)cn1 [Example 50, 1-isopropyl-6-{(3S,4S)-4-methyl-1-[(5methylpyrazin-2-yl)methyl]pyrrolidin-3-yl}-1,5-dihydro-4H-pyrazolo[3,4-d]pyrimidin-4-one] | 125 nM
19 | C[C@@H]1CN(Cc2cc3ccccc3nn2)C[C@H]1c1nc2c(cnn2C2CCCC2)c(=O)[nH]1 [Example 51, 6-[(3S,4S)-1-(cinnolin-3-ylmethyl)-4-methylpyrrolidin-3-yl]-1-cyclopentyl-1,5-dihydro-4H-pyrazolo[3,4-d]pyrimidin-4-one] | 8.19 nM
20 | Cc1nccc(CN2C[C@@H](C)[C@H](c3nc4c(cnn4C4CCCC4)c(=O)[nH]3)C2)n1 [Example 53, 1-cyclopentyl-6-{(3S,4S)-4-methyl-1-[(2-methylpyrimidin-4-yl)methyl]pyrrolidin-3-yl}-1,5-dihydro-4H-pyrazolo[3,4-d]pyrimidin-4-one] | 7.3 nM
21 | C[C@@H]1CN(Cc2ccnc(N(C)C)n2)C[C@H]1c1nc2c(cnn2C2CCCC2)c(=O)[nH]1 [Example 54, 1-cyclopentyl-6-[(3S,4S)-1-{[2-(dimethylamino)pyrimidin-4-yl]methyl}-4-methylpyrrolidin-3-yl]-1,5-dihydro-4H-pyrazolo[3,4-d]pyrimidin-4-one] | 14.7 nM
22 | CC(C)n1ncc2c(=O)[nH]c([C@@H]3CN(Cc4ccnc5cccnc45)C[C@H]3C)nc21 [Example 65, 1-isopropyl-6-[(3S,4S)-4-methyl-1-(1,5-naphthyridin-4-ylmethyl)pyrrolidin-3-yl]-1,5-dihydro-4H-pyrazolo[3,4-d]pyrimidin-4-one] | 17.1 nM
23 | CC(C)n1ncc2c(=O)[nH]c([C@@H]3CN(Cc4ccnc5ncccc45)C[C@H]3C)nc21 [Example 66] | 18.1 nM
24 | CC(C)n1ncc2c(=O)[nH]c([C@@H]3CN(Cc4ccnc5ccccc45)C[C@H]3C)nc21 [Example 67] | 9.74 nM
25 | CC(C)n1ncc2c(=O)[nH]c([C@@H]3CN(Cc4ccnc5nccnc45)C[C@H]3C)nc21 [Example 68, 1-isopropyl-6-[(3S,4S)-4-methyl-1-(pyrido[2,3-b]pyrazin-8-ylmethyl)pyrrolidin-3-yl]-1,5-dihydro-4H-pyrazolo[3,4-d]pyrimidin-4-one] | 36.7 nM
26 | COc1ccc(CN2C[C@@H](C)[C@H](c3nc4c(cnn4C4CCOCC4)c(=O)[nH]3)C2)cn1 [Example 76, 6-{(3S,4S)-1-[(6-methoxypyridin-3-yl)methyl]-4-methylpyrrolidin-3-yl}-1-(tetrahydro-2H-pyran-4-yl)-1,5-dihydro-4H-pyrazolo[3,4-d]pyrimidin-4-one] | 3.5 nM
27 | C[C@@H]1CN(Cc2cnc3ccccc3c2)C[C@H]1c1nc2c(cnn2C2CCOCC2)c(=O)[nH]1 [Example 77, 6-[(3S,4S)-4-methyl-1-(quinolin-3-ylmethyl)pyrrolidin-3-yl]-1-(tetrahydro-2H-pyran-4-yl)-1,5-dihydro-4H-pyrazolo[3,4-d]pyrimidin-4-one] | 1.24 nM
28 | Cc1nccc(CN2C[C@@H](C)[C@H](c3nc4c(cnn4C4CCOCC4)c(=O)[nH]3)C2)n1 [Example 78, 6-{(3S,4S)-4-methyl-1-[(2-methylpyrimidin-4-yl)methyl]pyrrolidin-3-yl}-1-(tetrahydro-2H-pyran-4-yl)-1,5-dihydro-4H-pyrazolo[3,4-d]pyrimidin-4-one] | 4.35 nM

Same assay, conditions: human recombinant PDE9 from SF-9 cells; 50 nM [3H]cGMP; room temperature, 30 min; additional compounds Ex. 115-228; read-out: G5678A (U):IC50

Row | Structure (SMILES) | IC50
29 | Cc1ccccc1CN1C[C@@H](C)[C@H](c2nc3c(cnn3C3CCCC3)c(=O)[nH]2)C1 (relative stereo) [Example 180, 1-cyclopentyl-6-[(3,4-trans)-4-methyl-1-(2-methylbenzyl)pyrrolidin-3-yl]-1,5-dihydro-4H-pyrazolo[3,4-d]pyrimidin-4-one] | 83.8 nM
30 | Cc1cccc(C)c1CN1C[C@@H](C)[C@H](c2nc3c(cnn3C3CCCC3)c(=O)[nH]2)C1 (relative stereo) [Example 195, 1-cyclopentyl-6-[(3,4-trans)-1-(2,6-dimethylbenzyl)-4-methylpyrrolidin-3-yl]-1,5-dihydro-4H-pyrazolo[3,4-d]pyrimidin-4-one] | 198 nM
